From ChEMBL document CHEMBL4649994
Several values for one entry are separate records, joined by “and”; a condition that tells them apart may be missing. Equal values may be shown once.

How the values were obtained:
Conditions in all cases: Compound concentration 10.0 uM, Protein concentration 2.0 uM
[1] = molecular target: Bromodomain-containing protein 3 (Homo sapiens) (UniProt Q15059); test: Thermal Shift Assay. Domain start/stop: P24-E144
[2] = molecular target: Protein polybromo-1 (Homo sapiens) (UniProt Q86U86); test: Thermal Shift Assay. Domain start/stop: H23-D159
Protein polybromo-1 (Homo sapiens), sequence (Q86U86 whole entry): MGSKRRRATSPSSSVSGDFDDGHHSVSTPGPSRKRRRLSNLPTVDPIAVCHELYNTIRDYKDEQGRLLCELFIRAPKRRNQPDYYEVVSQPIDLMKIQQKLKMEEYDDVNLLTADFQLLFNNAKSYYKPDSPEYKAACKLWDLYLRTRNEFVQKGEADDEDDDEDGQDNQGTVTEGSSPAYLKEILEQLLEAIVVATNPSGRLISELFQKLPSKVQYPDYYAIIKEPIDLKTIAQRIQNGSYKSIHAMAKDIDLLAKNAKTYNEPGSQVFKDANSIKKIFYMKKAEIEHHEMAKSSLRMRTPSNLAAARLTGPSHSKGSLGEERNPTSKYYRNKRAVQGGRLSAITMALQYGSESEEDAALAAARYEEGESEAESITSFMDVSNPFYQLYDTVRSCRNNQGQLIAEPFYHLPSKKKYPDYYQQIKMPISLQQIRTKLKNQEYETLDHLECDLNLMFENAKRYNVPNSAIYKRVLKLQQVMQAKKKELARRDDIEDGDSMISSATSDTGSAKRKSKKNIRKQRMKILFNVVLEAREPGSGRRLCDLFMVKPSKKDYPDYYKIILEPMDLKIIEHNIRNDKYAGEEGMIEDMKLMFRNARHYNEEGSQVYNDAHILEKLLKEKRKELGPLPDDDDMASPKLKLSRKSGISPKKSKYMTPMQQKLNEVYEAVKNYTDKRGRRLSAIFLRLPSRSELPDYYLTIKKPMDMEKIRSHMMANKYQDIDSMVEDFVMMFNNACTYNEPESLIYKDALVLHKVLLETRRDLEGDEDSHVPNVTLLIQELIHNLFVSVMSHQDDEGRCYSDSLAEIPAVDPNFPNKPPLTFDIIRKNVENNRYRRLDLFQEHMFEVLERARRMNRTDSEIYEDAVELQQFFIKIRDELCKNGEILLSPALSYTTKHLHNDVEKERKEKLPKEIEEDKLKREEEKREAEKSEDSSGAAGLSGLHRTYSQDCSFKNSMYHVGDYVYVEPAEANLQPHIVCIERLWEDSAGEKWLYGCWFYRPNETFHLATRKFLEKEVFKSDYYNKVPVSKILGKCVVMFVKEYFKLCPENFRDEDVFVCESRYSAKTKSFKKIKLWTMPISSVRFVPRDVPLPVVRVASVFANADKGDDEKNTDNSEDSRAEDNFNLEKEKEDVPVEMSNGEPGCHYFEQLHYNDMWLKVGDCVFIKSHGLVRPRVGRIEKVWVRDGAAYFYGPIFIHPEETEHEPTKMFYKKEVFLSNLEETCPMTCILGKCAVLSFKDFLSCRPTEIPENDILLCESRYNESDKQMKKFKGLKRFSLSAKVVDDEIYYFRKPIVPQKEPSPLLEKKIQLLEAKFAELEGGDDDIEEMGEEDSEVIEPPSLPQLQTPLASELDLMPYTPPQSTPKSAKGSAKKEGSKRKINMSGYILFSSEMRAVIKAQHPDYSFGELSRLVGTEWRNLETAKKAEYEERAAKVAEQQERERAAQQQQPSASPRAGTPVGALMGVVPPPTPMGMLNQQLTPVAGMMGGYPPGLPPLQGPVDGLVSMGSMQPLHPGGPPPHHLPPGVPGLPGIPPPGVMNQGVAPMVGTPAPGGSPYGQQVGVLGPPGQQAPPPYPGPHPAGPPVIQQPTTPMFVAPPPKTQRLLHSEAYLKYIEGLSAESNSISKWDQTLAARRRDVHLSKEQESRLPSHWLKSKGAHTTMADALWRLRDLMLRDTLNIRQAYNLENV

[3] = molecular target: Protein polybromo-1 (Homo sapiens) (UniProt Q86U86); test: Thermal Shift Assay. Domain start/stop: R487-D598
[4] = molecular target: Tripartite motif-containing protein 66 (Homo sapiens) (UniProt O15016); test: Thermal Shift Assay. Domain start/stop: M1091-S1218
[5] = molecular target: Histone-lysine N-methyltransferase ASH1L (Homo sapiens) (UniProt Q9NR48)
[6] = molecular target: ATPase family AAA domain-containing protein 2 (Homo sapiens) (UniProt Q6PL18)
[7] = molecular target: ATPase family AAA domain-containing protein 2B (Homo sapiens) (UniProt Q9ULI0)
[8] = molecular target: Bromodomain adjacent to zinc finger domain protein 1A (Homo sapiens) (UniProt Q9NRL2)
[9] = molecular target: Bromodomain adjacent to zinc finger domain protein 2A (Homo sapiens) (UniProt Q9UIF9)
[10] = molecular target: Bromodomain adjacent to zinc finger domain protein 2B (Homo sapiens) (UniProt Q9UIF8)
[11] = molecular target: Nucleosome-remodeling factor subunit BPTF (Homo sapiens) (UniProt Q12830)
[12] = molecular target: Bromodomain-containing protein 1 (Homo sapiens) (UniProt O95696)
[13] = molecular target: Bromodomain-containing protein 2 (Homo sapiens) (UniProt P25440)
Bromodomain-containing protein 2 (Homo sapiens), sequence (P25440 whole entry, looked up): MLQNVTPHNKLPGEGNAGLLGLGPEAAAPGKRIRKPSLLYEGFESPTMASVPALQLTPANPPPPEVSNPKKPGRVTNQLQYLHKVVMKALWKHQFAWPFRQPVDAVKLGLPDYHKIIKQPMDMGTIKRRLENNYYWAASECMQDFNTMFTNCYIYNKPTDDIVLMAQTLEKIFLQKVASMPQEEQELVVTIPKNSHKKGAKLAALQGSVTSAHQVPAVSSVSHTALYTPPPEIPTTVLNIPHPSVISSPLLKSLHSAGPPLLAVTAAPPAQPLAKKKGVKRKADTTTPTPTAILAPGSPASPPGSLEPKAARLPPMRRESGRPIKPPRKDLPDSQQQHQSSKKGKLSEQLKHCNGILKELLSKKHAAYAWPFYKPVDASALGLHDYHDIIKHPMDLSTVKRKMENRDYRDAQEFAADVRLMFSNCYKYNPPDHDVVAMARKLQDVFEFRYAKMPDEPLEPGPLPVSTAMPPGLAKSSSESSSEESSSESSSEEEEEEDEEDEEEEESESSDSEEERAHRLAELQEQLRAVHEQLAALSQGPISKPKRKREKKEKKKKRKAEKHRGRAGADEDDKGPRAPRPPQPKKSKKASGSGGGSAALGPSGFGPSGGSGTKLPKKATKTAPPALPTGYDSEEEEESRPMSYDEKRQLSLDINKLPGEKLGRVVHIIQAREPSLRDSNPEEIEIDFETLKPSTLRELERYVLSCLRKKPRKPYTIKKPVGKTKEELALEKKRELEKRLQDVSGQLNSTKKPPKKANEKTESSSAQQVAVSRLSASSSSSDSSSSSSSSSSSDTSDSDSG

[14] = molecular target: Bromodomain-containing protein 2 (Homo sapiens) (UniProt P25440); remark: listed apart in the source
[15] = molecular target: Bromodomain-containing protein 3 (Homo sapiens) (UniProt Q15059)
[16] = molecular target: Bromodomain-containing protein 9 (Homo sapiens) (UniProt Q9H8M2)
[17] = molecular target: Bromodomain testis-specific protein (Homo sapiens) (UniProt Q58F21)
[18] = molecular target: Peregrin (Homo sapiens) (UniProt P55201)
[19] = molecular target: Bromodomain and PHD finger-containing protein 3 (Homo sapiens) (UniProt Q9ULD4)
[20] = molecular target: Bromodomain and WD repeat-containing protein 3 (Homo sapiens) (UniProt Q6RI45)
[21] = molecular target: Chromatin remodeling regulator CECR2 (Homo sapiens) (UniProt Q9BXF3)
[22] = molecular target: CREB-binding protein (Homo sapiens) (UniProt Q92793)
[23] = molecular target: Histone acetyltransferase p300 (Homo sapiens) (UniProt Q09472)
[24] = molecular target: Histone acetyltransferase KAT2A (Homo sapiens) (UniProt Q92830)
[25] = molecular target: Histone acetyltransferase KAT2B (Homo sapiens) (UniProt Q92831)
[26] = molecular target: Protein polybromo-1 (Homo sapiens) (UniProt Q86U86)
[27] = molecular target: Protein polybromo-1 (Homo sapiens) (UniProt Q86U86); remark: listed apart in the source
[28] = molecular target: Protein polybromo-1 (Homo sapiens) (UniProt Q86U86); remark: listed apart in the source
[29] = molecular target: Protein polybromo-1 (Homo sapiens) (UniProt Q86U86); remark: listed apart in the source
[30] = molecular target: PH-interacting protein (Homo sapiens) (UniProt Q8WWQ0)
[31] = molecular target: SWI/SNF-related matrix-associated actin-dependent regulator of chromatin subfamily A member 2 (Homo sapiens) (UniProt P51531)
[32] = molecular target: SWI/SNF-related matrix-associated actin-dependent regulator of chromatin subfamily A member 4 (Homo sapiens) (UniProt P51532)
[33] = molecular target: Nuclear body protein SP140 (Homo sapiens) (UniProt Q13342)
[34] = molecular target: Nuclear body protein SP140-like protein (Homo sapiens) (UniProt Q9H930)
[35] = molecular target: Transcription initiation factor TFIID subunit 1 (Homo sapiens) (UniProt P21675)
[36] = molecular target: Transcription initiation factor TFIID subunit 1 (Homo sapiens) (UniProt P21675); remark: listed apart in the source
[37] = molecular target: Transcription initiation factor TFIID subunit 1-like (Homo sapiens) (UniProt Q8IZX4)
Transcription initiation factor TFIID subunit 1-like (Homo sapiens), sequence (Q8IZX4 whole entry): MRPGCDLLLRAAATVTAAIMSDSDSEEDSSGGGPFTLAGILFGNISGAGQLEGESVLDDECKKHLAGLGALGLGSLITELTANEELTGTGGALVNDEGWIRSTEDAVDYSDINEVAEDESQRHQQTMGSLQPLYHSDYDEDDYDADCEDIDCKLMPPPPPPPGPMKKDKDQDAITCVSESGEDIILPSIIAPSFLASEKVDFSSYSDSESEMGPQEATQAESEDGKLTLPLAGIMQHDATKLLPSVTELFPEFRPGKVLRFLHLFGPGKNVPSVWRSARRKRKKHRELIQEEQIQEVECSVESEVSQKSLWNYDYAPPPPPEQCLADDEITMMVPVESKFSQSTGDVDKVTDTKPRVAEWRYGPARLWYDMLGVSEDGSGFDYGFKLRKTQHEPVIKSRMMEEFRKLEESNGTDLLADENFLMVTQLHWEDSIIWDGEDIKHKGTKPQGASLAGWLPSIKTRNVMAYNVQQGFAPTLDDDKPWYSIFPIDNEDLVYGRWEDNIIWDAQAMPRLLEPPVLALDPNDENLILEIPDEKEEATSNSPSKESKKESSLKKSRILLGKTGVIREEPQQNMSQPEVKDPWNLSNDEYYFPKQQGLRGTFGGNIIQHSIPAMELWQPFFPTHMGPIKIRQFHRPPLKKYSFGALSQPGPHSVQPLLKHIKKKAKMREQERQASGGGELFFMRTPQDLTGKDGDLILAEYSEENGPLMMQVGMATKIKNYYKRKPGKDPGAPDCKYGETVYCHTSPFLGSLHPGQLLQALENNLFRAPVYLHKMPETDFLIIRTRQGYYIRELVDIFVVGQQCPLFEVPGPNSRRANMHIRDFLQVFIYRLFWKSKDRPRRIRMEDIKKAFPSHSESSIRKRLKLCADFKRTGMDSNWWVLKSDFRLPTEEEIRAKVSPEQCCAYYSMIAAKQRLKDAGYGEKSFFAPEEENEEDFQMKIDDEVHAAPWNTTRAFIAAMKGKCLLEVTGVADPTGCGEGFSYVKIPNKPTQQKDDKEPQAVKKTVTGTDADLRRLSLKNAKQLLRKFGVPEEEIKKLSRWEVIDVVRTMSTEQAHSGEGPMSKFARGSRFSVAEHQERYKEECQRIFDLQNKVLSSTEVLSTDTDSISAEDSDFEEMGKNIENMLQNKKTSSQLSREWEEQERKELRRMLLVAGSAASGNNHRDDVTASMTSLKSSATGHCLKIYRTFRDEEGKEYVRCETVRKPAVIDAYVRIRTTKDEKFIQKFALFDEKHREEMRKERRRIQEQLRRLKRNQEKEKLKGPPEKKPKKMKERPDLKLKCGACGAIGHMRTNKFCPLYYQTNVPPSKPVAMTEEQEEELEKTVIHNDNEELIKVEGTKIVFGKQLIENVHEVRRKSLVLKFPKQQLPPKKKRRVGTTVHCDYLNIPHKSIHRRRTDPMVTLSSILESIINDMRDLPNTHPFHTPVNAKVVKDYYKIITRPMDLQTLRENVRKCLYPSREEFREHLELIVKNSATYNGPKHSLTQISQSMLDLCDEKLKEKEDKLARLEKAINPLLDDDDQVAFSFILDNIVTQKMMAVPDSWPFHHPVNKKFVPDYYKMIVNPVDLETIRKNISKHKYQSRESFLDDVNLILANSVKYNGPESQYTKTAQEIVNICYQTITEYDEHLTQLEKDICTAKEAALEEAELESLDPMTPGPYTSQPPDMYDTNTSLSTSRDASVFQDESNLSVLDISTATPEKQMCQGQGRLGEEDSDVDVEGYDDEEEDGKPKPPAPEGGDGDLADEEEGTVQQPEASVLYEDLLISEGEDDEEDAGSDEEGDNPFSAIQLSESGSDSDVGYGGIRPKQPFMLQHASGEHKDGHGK

[38] = molecular target: Transcription initiation factor TFIID subunit 1-like (Homo sapiens) (UniProt Q8IZX4); remark: listed apart in the source
[39] = molecular target: Transcription intermediary factor 1-alpha (Homo sapiens) (UniProt O15164)
[40] = molecular target: Transcription intermediary factor 1-beta (Homo sapiens) (UniProt Q13263)
[41] = molecular target: Peregrin (Homo sapiens) (UniProt P55201); remark: listed apart in the source

Bromodomain-containing protein 3 (Homo sapiens), sequence (Q15059 2-726 limits assumed): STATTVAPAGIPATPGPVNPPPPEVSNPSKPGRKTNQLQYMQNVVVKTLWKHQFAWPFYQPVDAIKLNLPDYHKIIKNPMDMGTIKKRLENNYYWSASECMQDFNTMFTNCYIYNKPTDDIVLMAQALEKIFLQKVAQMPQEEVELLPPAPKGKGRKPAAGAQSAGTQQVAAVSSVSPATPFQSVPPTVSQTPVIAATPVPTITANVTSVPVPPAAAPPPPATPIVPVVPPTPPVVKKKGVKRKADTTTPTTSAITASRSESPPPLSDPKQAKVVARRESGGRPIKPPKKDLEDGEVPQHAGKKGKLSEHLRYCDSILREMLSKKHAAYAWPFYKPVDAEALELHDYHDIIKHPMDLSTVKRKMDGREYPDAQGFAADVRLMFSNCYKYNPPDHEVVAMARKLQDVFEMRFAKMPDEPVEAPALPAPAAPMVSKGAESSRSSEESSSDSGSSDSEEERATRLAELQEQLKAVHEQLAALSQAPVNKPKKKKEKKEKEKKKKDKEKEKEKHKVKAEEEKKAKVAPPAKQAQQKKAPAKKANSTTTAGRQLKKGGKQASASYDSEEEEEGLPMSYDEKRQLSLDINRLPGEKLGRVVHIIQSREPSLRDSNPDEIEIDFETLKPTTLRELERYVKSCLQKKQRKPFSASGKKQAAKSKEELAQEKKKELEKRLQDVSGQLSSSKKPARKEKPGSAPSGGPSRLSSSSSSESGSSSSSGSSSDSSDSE

COc1ccccc1S(=O)(=O)Nc1ccc2c(c1)CN(C)C(=O)N2
ΔTm [1]: 3.99 °C and 5.24 °C
ΔTm [2]: 0.75 °C
ΔTm [3]: 1.03 °C
ΔTm [4]: 0.42 °C
ΔTm [5]: -0.34 °C
ΔTm [6]: 0.71 °C
ΔTm [7]: 0.1 °C
ΔTm [8]: 1.62 °C
ΔTm [9]: 1.02 °C
ΔTm [10]: 0.66 °C and 0.25 °C
ΔTm [11]: 0.44 °C
ΔTm [12]: 1.19 °C and 0.62 °C
ΔTm [13]: 4.61 °C and 3.1 °C
ΔTm [14]: 5.32 °C
ΔTm [15]: 4.59 °C and 5.45 °C
ΔTm [16]: 1.96 °C
ΔTm [17]: 2.08 °C
ΔTm [18]: 2.42 °C
ΔTm [19]: 1.72 °C
ΔTm [20]: 0.16 °C
ΔTm [21]: -0.22 °C
ΔTm [22]: 2.09 °C and 2.66 °C
ΔTm [23]: 2.71 °C
ΔTm [24]: 0.43 °C
ΔTm [25]: -0.1 °C and 0.81 °C
ΔTm [26]: 0.83 °C and -0.18 °C
ΔTm [27]: -0.18 °C
ΔTm [28]: 0.62 °C
ΔTm [29]: 0.99 °C
ΔTm [30]: 1.07 °C
ΔTm [31]: 0.49 °C
ΔTm [32]: 0.51 °C
ΔTm [33]: 0.1 °C
ΔTm [34]: 0.12 °C
ΔTm [35]: -0.08 °C
ΔTm [36]: 0.62 °C
ΔTm [37]: 0.52 °C
ΔTm [38]: 0.78 °C
ΔTm [39]: 0.57 °C
ΔTm [40]: 0.29 °C
ΔTm [41]: 0.68 °C
